The values that follow come from article PMC11821258 (Molecules, 2025).

The IC50 is the concentration that gives 50% inhibition.

Assay [1] concerns human biphenotypic B myelomonocytic leukemia MV4-11. The note with it: MV4-11, literature data ref 36; cited from earlier work.
Assay [2] relates to human prostate adenocarcinoma PC-3. The settings on record: PC-3, literature data ref 36; cited from earlier work.
Assay [3] has as its system human lung carcinoma A549. The settings on record: A549, literature data ref 36; cited from earlier work.
The subject of assay [4] is human normal epithelial cells from the mammary gland (MCF-10A). The note with it: literature data ref 36; cited from earlier work.
Assay [5] deals with human colon cancer HCT116 cells. The note with it: HCT116, literature data ref 36; cited from earlier work.
Assay [6] deals with human breast cancer MCF-7. The settings on record: MCF-7, literature data ref 36; cited from earlier work.
The next assay has as its system MV4-11 cells. Kind of assay: Apoptosis determination via Annexin V and PI staining. It counts as cell-based, human. The note with it: MV4-11, 24 h. Here is the method: Camptothecin at a concentration of 0.05 uM was used as a positive control. After incubation, the cells were collected and counted with a hemocytometer, and 1×10^5 cells were washed twice with PBS. APC-Annexin V (Becton Dickinson, Pharmingen, Franklin Lakes, NJ, USA) was dissolved to the concentration of […] in a binding buffer (10 mM HEPES/NaOH, pH 7.4; 150 mM NaCl; 5 mM KCl; 1 mM MgCl2; and 1.8 mM CaCl2) (HIIET, Wrocław, Poland), and the cells were suspended in 200 µL of this solution. After 15 min of the incubation in the dark at room temperature, 20 µL of propidium iodide (PI) solution (0.02 mg/mL) was added. Data acquisition was performed by conducting flow cytometry using a BD LSRFortessa cytometer (BD Bioscience, San Jose, CA, USA). The compounds were tested at least three times independently. Results were analyzed using Flowing software 2.5.1 (Turku, Finland). […] Double-negative cells were live cells, PI+/Annexin V+ were late apoptotic cells, PI-/Annexin V+ were early apoptotic cells, and PI+/Annexin V- were necrotic cells.

Assay [7] concerns caspase-3/7 in MV4-11 cells. Kind of assay: Caspase-3/7 activity determination. It is filed as cell-based, human. The note with it: MV4-11, positive control. Here is the method: The MV4-11 cells were seeded on 48-well plates to the final volume of 1 mL. […] After incubation, the cells were collected and centrifuged (5 min, 4 °C, 250× g). Cells were suspended in 50 µL of ice-cold lysis buffer (50 mM HEPES; 10% (w/v) sucrose; 150 mM NaCl; 2 mM EDTA; 1% (v/v) Triton X-100, pH 7.3; and HIIET, Wrocław, Poland) and incubated for 30 min at 4 °C. After the incubation, 40 µL of each sample was transferred to a white 96-well plate (Corning, USA) containing 160 µL of the reaction buffer (20 mM HEPES; 10% sucrose; 100 mM NaCl; 1 mM EDTA; 10 mM DTT; and 0.02% Trition X-100, pH 7.3) (HIIET, Wrocław, Poland) with a 9 µM AC-DEVD-AMC (Cayman Chemical, Ann Arbor, MI, USA) fluorogenic substrate (λex = 360 nm, λem = 460 nm). The correlation of the fluorescence increase with the caspase-3/7 level was continuously recorded at 37 °C for 120 min using Biotek Synergy H4 (Biokom, Warsaw, Poland). Compounds were tested in duplicates in single experiments, and each experiment was repeated at least three times independently. Results were normalized to the number of cells in each well and are reported as the mean relative caspase-3/7 activity compared to the untreated control sample ± SD.

SMILES strings stand for the structures.

As to `COc1cccc2c1C(=O)c1c(O)c3c(c(O)c1C2=O)C[C@@](O)(C(=O)CO)C[C@@H]3O[C@H]1C[C@H](N)[C@H](O)[C@H](C)O1` [C, doxorubicin], the IC50 in assay [1] was 21 ± 8 nM; in assay [2], 1270 ± 200 nM; in assay [3] it was 40 ± 12 nM; in assay [4], 114 ± 13 nM; in assay [5], 118 ± 20 nM; in assay [6] it was 150 ± 15 nM.
`CC[C@@]1(O)C(=O)OCc2c1cc1n(c2=O)Cc2cc3ccccc3nc2-1` [camptothecin, reference compound]: the induction of apoptosis entry in the assay with MV4-11 cells is given as “induced apoptosis”. Also, in assay [7], the “activity of caspase-3 in comparison to control cells” value worked out at 5 fold.
